Strand notation (5' to 3'): a small letter for the sugar, then the base; units joined by * are phosphorothioate-linked, units joined directly phosphodiester-linked; [ ] holds rarer units or linkages, { } end groups; capitals alone tell only the bases. e = 2'-O-(2-methoxyethyl) (MOE); [5mC] = 5-methylcytosine; d = 2'-deoxy (DNA)
Columns and labels:
human PKK mRNA [1] = experiment: Dose-dependent antisense inhibition of human PKK in HepaRG cells, 0.19-5.00 uM (Example 5); assay type: cell-based; details: HepaRG cells; for percent inhibition of PKK at 0.19 μM / percent inhibition of PKK at 0.56 μM / percent inhibition of PKK at 1.67 μM / percent inhibition of PKK at 5.00 μM: electroporation, approximately 16 hours; for percent inhibition of PKK mRNA, 0.19 μM: 0.19 μM antisense oligonucleotide; for percent inhibition of PKK mRNA, 0.56 μM: 0.56 μM antisense oligonucleotide; for percent inhibition of PKK mRNA, 1.67 μM: 1.67 μM antisense oligonucleotide; for percent inhibition of PKK mRNA, 5.00 μM: 5.00 μM antisense oligonucleotide
Summary of the method: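 HepaRG cells (20,000/well) were electroporated with antisense oligonucleotide at 0.19, 0.56, 1.67 and 5.00 μM and treated for about 16 hours. PKK mRNA was quantified by qRT-PCR with primer probe set RTS3454, normalised to RIBOGREEN total RNA, and IC50 was derived per oligonucleotide.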

human PKK mRNA [2] = experiment: Antisense inhibition of human PKK mRNA in HepaRG cells, 5,000 nM (Example 2); assay type: cell-based
Summary of the method: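 HepaRG cells, 20,000 per well, were electroporated with 5,000 nM MOE gapmer (phosphorothioate, 5-methylcytosine) and incubated about 24 hours. PKK mRNA was quantified by qRT-PCR with primer probe set RTS3454, normalized to RIBOGREEN total RNA, and expressed as percent inhibition versus untreated controls.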

[3] = 4 point dose response, Table 39
[4] = human PKK mRNA in HepaRG cells, 5-10-5 gapmers, Table 14
[5] = 4 point dose response, Table 38

**Q.** “546853 (eA*e[5mC]*eA*eG*eT*dA*dT*d[5mC]*dA*d[5mC]*dT*dG*dT*d[5mC]*d[5mC]*eT*eA*eT*eA*eT; antisense) [compound 546853]” was tested. Which “percent inhibition of PKK at 0.19 μM” value (human PKK mRNA [1]; Table 39) did it give?
**A.** 47%

**Q.** And the “percent inhibition of PKK at 0.56 μM” value (human PKK mRNA [1]; Table 39)?
**A.** 64%

**Q.** What about the “percent inhibition of PKK at 1.67 μM” value (human PKK mRNA [1]; Table 39) of the same substance?
**A.** 84%

**Q.** And the IC50 (human PKK mRNA [1]; [3])?
**A.** 200 nM

**Q.** And the “percent inhibition of PKK mRNA, 0.19 μM” value (human PKK mRNA [1])?
**A.** 4%

**Q.** And the “percent inhibition of PKK mRNA, 0.56 μM” value (human PKK mRNA [1])?
**A.** 49%

**Q.** And the “percent inhibition of PKK mRNA, 1.67 μM” value (human PKK mRNA [1])?
**A.** 74%

**Q.** What about the “percent inhibition of PKK mRNA, 5.00 μM” value (human PKK mRNA [1]) of the same substance?
**A.** 92%

**Q.** What about the IC50 (human PKK mRNA [1]; 0.19-5.00 μM) of the same substance?
**A.** 800 nM

**Q.** And the “% inhibition” value (human PKK mRNA [2]; [4])?
**A.** 86%

**Q.** For “546876 (eG*eT*e[5mC]*e[5mC]*eT*dA*dT*dA*dT*d[5mC]*dA*d[5mC]*dT*dG*dT*eA*e[5mC]*e[5mC]*eT*eG; antisense) [compound 546876]”, which “percent inhibition of PKK at 0.19 μM” value (human PKK mRNA [1]; Table 39) is on record?
**A.** 0%

**Q.** And the “percent inhibition of PKK at 0.56 μM” value (human PKK mRNA [1]; Table 39)?
**A.** 50%

**Q.** And the “percent inhibition of PKK at 1.67 μM” value (human PKK mRNA [1]; Table 39)?
**A.** 85%

**Q.** And the “percent inhibition of PKK at 5.00 μM” value (human PKK mRNA [1]; Table 39)?
**A.** 95%

**Q.** What about the IC50 (human PKK mRNA [1]; [3]) of the same substance?
**A.** 800 nM

**Q.** What about the “% inhibition” value (human PKK mRNA [2]; [4]) of the same substance?
**A.** 87%

**Q.** Which results are given for “548744 (DNA eT*e[5mC]*eA*e[5mC]*dT*dG*dT*dA*d[5mC]*dT*dA*dG*dT*eT*eT*e[5mC]*e[5mC]; antisense) [compound 548744]”?
**A.** percent inhibition of PKK at 0.19 μM (human PKK mRNA [1]; Table 38): 14%; percent inhibition of PKK at 0.56 μM (human PKK mRNA [1]; Table 38): 35%; percent inhibition of PKK at 1.67 μM (human PKK mRNA [1]; Table 38): 63%; percent inhibition of PKK at 5.00 μM (human PKK mRNA [1]; Table 38): 83%; IC50 (human PKK mRNA [1]; [5]): 1000 nM; % inhibition (human PKK mRNA [2]; human PKK mRNA, HepaRG cells, 5,000 nM antisense oligonucleotide, Table 18): 83%

**Q.** Which results are given for “547585 (eA*eA*e[5mC]*eA*eG*dT*dA*dT*d[5mC]*dA*d[5mC]*dT*dG*dT*d[5mC]*e[5mC]*eT*eA*eT*eA; antisense) [compound 547585]”?
**A.** percent inhibition of PKK at 0.19 μM (human PKK mRNA [1]; Table 38): 42%; percent inhibition of PKK at 0.56 μM (human PKK mRNA [1]; Table 38): 57%; percent inhibition of PKK at 1.67 μM (human PKK mRNA [1]; Table 38): 70%; percent inhibition of PKK at 5.00 μM (human PKK mRNA [1]; Table 38): 95%; IC50 (human PKK mRNA [1]; [5]): 400 nM; percent inhibition of PKK mRNA, 0.19 μM (human PKK mRNA [1]): 0%; percent inhibition of PKK mRNA, 0.56 μM (human PKK mRNA [1]): 46%; percent inhibition of PKK mRNA, 1.67 μM (human PKK mRNA [1]): 89%; percent inhibition of PKK mRNA, 5.00 μM (human PKK mRNA [1]): 93%; IC50 (human PKK mRNA [1]; 0.19-5.00 μM): 800 nM; % inhibition (human PKK mRNA [2]; [4]): 85%

**Q.** For “547722 (e[5mC]*eT*e[5mC]*e[5mC]*eA*dG*dT*d[5mC]*dA*d[5mC]*d[5mC]*dA*d[5mC]*d[5mC]*dA*eT*eT*eG*e[5mC]*e[5mC]; antisense) [compound 547722]”, which “percent inhibition of PKK at 0.19 μM” value (human PKK mRNA [1]; Table 40) is on record?
**A.** 0%

**Q.** And the “percent inhibition of PKK at 0.56 μM” value (human PKK mRNA [1]; Table 40)?
**A.** 15%

**Q.** And the “percent inhibition of PKK at 1.67 μM” value (human PKK mRNA [1]; Table 40)?
**A.** 32%

**Q.** And the “percent inhibition of PKK at 5.00 μM” value (human PKK mRNA [1]; Table 40)?
**A.** 73%

**Q.** What about the IC50 (human PKK mRNA [1]; 4 point dose response, Table 40) of the same substance?
**A.** 2400 nM

**Q.** What about the “% inhibition” value (human PKK mRNA [2]; HepaRG cells, 5,000 nM antisense oligonucleotide, 5-10-5 gapmers, Table 16) of the same substance?
**A.** 80%

**Q.** With “546897 (eA*eG*eT*eA*eT*d[5mC]*dA*d[5mC]*dT*dG*dT*d[5mC]*d[5mC]*dT*dA*eT*eG*eT*e[5mC]*eA; antisense) [compound 546897]” as the substance, how does the “percent inhibition of PKK at 0.19 μM” value (human PKK mRNA [1]; Table 36) read?
**A.** 40%

**Q.** And the “percent inhibition of PKK at 0.56 μM” value (human PKK mRNA [1]; Table 36)?
**A.** 56%

**Q.** What about the “percent inhibition of PKK at 1.67 μM” value (human PKK mRNA [1]; Table 36) of the same substance?
**A.** 71%

**Q.** What about the “percent inhibition of PKK at 5.00 μM” value (human PKK mRNA [1]; Table 36) of the same substance?
**A.** 95%

**Q.** What about the IC50 (human PKK mRNA [1]; 4 point dose response, Table 36) of the same substance?
**A.** 400 nM

**Q.** What about the “percent inhibition of PKK mRNA, 0.19 μM” value (human PKK mRNA [1]) of the same substance?
**A.** 16%

**Q.** What about the “percent inhibition of PKK mRNA, 0.56 μM” value (human PKK mRNA [1]) of the same substance?
**A.** 17%

**Q.** What about the “percent inhibition of PKK mRNA, 1.67 μM” value (human PKK mRNA [1]) of the same substance?
**A.** 69%

**Q.** And the “percent inhibition of PKK mRNA, 5.00 μM” value (human PKK mRNA [1])?
**A.** 97%

**Q.** And the IC50 (human PKK mRNA [1]; 0.19-5.00 μM)?
**A.** 800 nM

**Q.** What about the “% inhibition” value (human PKK mRNA [2]; human PKK mRNA, HepaRG cells, 5-10-5 motif oligonucleotides targeting SEQ ID NO: 1 and 10) of the same substance?
**A.** 90%

**Q.** Which “percent inhibition of PKK at 0.19 μM” value (human PKK mRNA [1]; Table 35) does the source give for “546849 (eA*eT*e[5mC]*eA*e[5mC]*dT*dG*dT*d[5mC]*d[5mC]*dT*dA*dT*dA*dT*e[5mC]*eA*e[5mC]*eT*eG; antisense) [compound 546849]” here?
**A.** 23%

**Q.** And the “percent inhibition of PKK at 0.56 μM” value (human PKK mRNA [1]; Table 35)?
**A.** 35%

**Q.** And the “percent inhibition of PKK at 1.67 μM” value (human PKK mRNA [1]; Table 35)?
**A.** 83%

**Q.** And the “percent inhibition of PKK at 5.00 μM” value (human PKK mRNA [1]; Table 35)?
**A.** 91%

**Q.** And the IC50 (human PKK mRNA [1]; 4 point dose response, Table 35)?
**A.** 700 nM

**Q.** And the “percent inhibition of PKK mRNA, 0.19 μM” value (human PKK mRNA [1])?
**A.** 13%

**Q.** What about the “percent inhibition of PKK mRNA, 0.56 μM” value (human PKK mRNA [1]) of the same substance?
**A.** 45%

**Q.** And the “percent inhibition of PKK mRNA, 1.67 μM” value (human PKK mRNA [1])?
**A.** 84%

**Q.** And the “percent inhibition of PKK mRNA, 5.00 μM” value (human PKK mRNA [1])?
**A.** 98%

**Q.** What about the IC50 (human PKK mRNA [1]; 0.19-5.00 μM) of the same substance?
**A.** 700 nM

**Q.** And the “% inhibition” value (human PKK mRNA [2]; [4])?
**A.** 93%
